Source: publication PMC8286840, “Identifying SARS-CoV-2 antiviral compounds by screening for small molecule inhibitors of Nsp3 papain-like protease” (Biochemical Journal, 2021)
Where a name gives a salt, the structure may show the parent alone. Read-outs that look alike come from different tables or passages of the source.

Experiments:
[1] = target: T1, SARS-CoV-2 PLpro (nsp3 1564–1878) (Severe acute respiratory syndrome coronavirus 2, UniProt P0DTD1); assay: biochemical; parameters: FRET-quenched peptide (Pro3) cleavage by PLpro, 10 min pre-incubation, slope over 20 min, normalised to no-compound control; conditions: low concentration screen, read-out: % of control remaining
[2] = target: T1, SARS-CoV-2 PLpro (nsp3 1564–1878); assay: biochemical; parameters: FRET-quenched peptide (Pro3) cleavage by PLpro, 10 min pre-incubation, slope over 20 min, normalised to no-compound control; conditions: high concentration screen, read-out: % of control remaining

CC[N+](CC)(CC)CC [Tetraethylammonium chloride]
remaining activity at 1.25 µM ([1]; Well no.=1475): 93.2% | remaining activity at 3.75 µM ([2]; Well no.=1475): 89%

C[N+]1(C)[C@@H]2CC[C@H]1C[C@@H](OC(=O)C(CO)c1ccccc1)C2 (some centres unmarked) [Atropine methyl nitrate]
remaining activity at 1.25 µM ([1]; Well no.=245): 99.7% | remaining activity at 3.75 µM ([2]; Well no.=245): 100%

CCOC(=O)c1ncn2c1CN(C)C(=O)c1cc(F)ccc1-2 [Flumazenil]
remaining activity at 1.25 µM ([1]; Well no.=517): 104% | remaining activity at 1.25 µM ([1]; Well no.=1575): 103% | remaining activity at 3.75 µM ([2]; Well no.=517): 106% | remaining activity at 3.75 µM ([2]; Well no.=1575): 102%

COc1cc(NC(C)CCCN)c2ncccc2c1 (centres unmarked) [Primaquine]
remaining activity at 1.25 µM ([1]; Well no.=2153): 97.8% | remaining activity at 3.75 µM ([2]; Well no.=2153): 98.9%

CCCCCCCC/C=C/CCCCCCCCC(=O)O [10(E)-Nonadecenoic acid]
remaining activity at 1.25 µM ([1]; Well no.=4546): 98.5% | remaining activity at 3.75 µM ([2]; Well no.=4546): 102%

CC(O)CC(=O)O (centres unmarked) [3-Hydroxybutyric acid]
remaining activity at 1.25 µM ([1]; Well no.=7117): 103% | remaining activity at 3.75 µM ([2]; Well no.=7117): 99%

CCCCCCCC(=O)O [Octanoic acid]
remaining activity at 1.25 µM ([1]; Well no.=6591): 104% | remaining activity at 3.75 µM ([2]; Well no.=6591): 110%

CC(C)C[C@H](NC(=O)[C@@H](O)[C@H](N)Cc1ccc([N+](=O)[O-])cc1)C(=O)O [(2S,3R)-3-Amino-2-hydroxy-4-(4-nitrophenyl)butanoyl-L-leucine hydrochloride]
remaining activity at 1.25 µM ([1]; Well no.=67): 106% | remaining activity at 3.75 µM ([2]; Well no.=67): 104%

CCCCCCCCCCCCCCCCOC[C@@H](COP(=O)([O-])OCC[N+](C)(C)C)OC(C)=O [PAF C16]
remaining activity at 1.25 µM ([1]; Well no.=4445): 103% | remaining activity at 3.75 µM ([2]; Well no.=4445): 98.2%

Oc1cc(O)c2c(c1)O[C@H](c1ccc(O)c(O)c1)[C@H](O)C2 [(-)-Epicatechin]
remaining activity at 1.25 µM ([1]; Well no.=3348): 96.9% | remaining activity at 3.75 µM ([2]; Well no.=3348): 98.5%

C[C@](N)(Cc1ccc(O)c(O)c1)C(=O)O [Methyldopa]
remaining activity at 1.25 µM ([1]; Well no.=1955): 92.2% | remaining activity at 3.75 µM ([2]; Well no.=1955): 92.5%

Cc1ncc(CNC(=O)N(CCCl)N=O)c(N)n1 [Nimustine hydrochloride]
remaining activity at 1.25 µM ([1]; Well no.=861): 96.9% | remaining activity at 3.75 µM ([2]; Well no.=861): 97.2%

CNC(=O)Nc1ccc(-c2nc(N3CC4CCC(C3)O4)c3cnn(C4CCC5(CC4)OCCO5)c3n2)cc1 [WYE-125132]
remaining activity at 1.25 µM ([1]; Well no.=4641): 99.8% | remaining activity at 3.75 µM ([2]; Well no.=4641): 104%

Nc1ncnc2c1ncn2[C@@H]1O[C@@H]2CO[P@@](=O)(O)O[C@H]3[C@@H](O)[C@H](n4cnc5c(N)ncnc54)O[C@@H]3CO[P@@](=O)(O)O[C@H]2[C@H]1O [c-di-AMP]
remaining activity at 1.25 µM ([1]; Well no.=7914): 91.4% | remaining activity at 1.25 µM ([1]; Well no.=8703): 104% | remaining activity at 3.75 µM ([2]; Well no.=7914): 90.2% | remaining activity at 3.75 µM ([2]; Well no.=8703): 102%

C[C@@H](O[C@H]1OCCN(Cc2nn(P(=O)(O)O)c(=O)[nH]2)[C@H]1c1ccc(F)cc1)c1cc(C(F)(F)F)cc(C(F)(F)F)c1 [Fosaprepitant dimeglumine]
remaining activity at 1.25 µM ([1]; Well no.=5269): 97.5% | remaining activity at 3.75 µM ([2]; Well no.=5269): 95.4%

C[C@]12CCC(=O)C=C1CC[C@@H]1[C@@H]2[C@@H](O)C[C@@]2(C)[C@H]1CC[C@]2(O)C(=O)COC(=O)CCC(=O)O [Hydrocortisone 21-hemisuccinate sodium salt]
remaining activity at 1.25 µM ([1]; Well no.=5653): 99% | remaining activity at 3.75 µM ([2]; Well no.=5653): 102%

CSCCNc1nonc1-c1noc(=O)n1-c1ccc(F)c(Br)c1 [IDO-IN-12]
remaining activity at 1.25 µM ([1]; Well no.=8177): 105% | remaining activity at 3.75 µM ([2]; Well no.=8177): 99.7%

Nc1[nH]cnc2ncnc1-2 [Adenine]
remaining activity at 1.25 µM ([1]; Well no.=5004): 108% | remaining activity at 1.25 µM ([1]; Well no.=7253): 101% | remaining activity at 3.75 µM ([2]; Well no.=5004): 107% | remaining activity at 3.75 µM ([2]; Well no.=7253): 98.1%

Cc1cnc(NC(=O)C2=C(O)c3ccccc3S(=O)(=O)N2C)s1 [Meloxicam]
remaining activity at 1.25 µM ([1]; Well no.=1578): 94.4% | remaining activity at 3.75 µM ([2]; Well no.=1578): 96.6%

NC1(C(=O)O)CCCCC1 [1-Amino-1-cyclohexanecarboxylic acid hydrochloride]
remaining activity at 1.25 µM ([1]; Well no.=160): 100% | remaining activity at 3.75 µM ([2]; Well no.=160): 102%

COc1cc(N)c(Cl)cc1C(=O)NC1CCN(Cc2ccccc2)CC1 [Clebopride (malate)]
remaining activity at 1.25 µM ([1]; Well no.=7335): 105% | remaining activity at 3.75 µM ([2]; Well no.=7335): 102%

N=C(N)NC(=N)NCCc1ccccc1 [Phenformin HCl]
remaining activity at 1.25 µM ([1]; Well no.=4908): 100% | remaining activity at 3.75 µM ([2]; Well no.=4908): 98.5%

COc1ccc(S(=O)(=O)N2CCC[C@H]2C(=O)Nc2cc(C)cc(C)c2)cc1 [ACT-462206]
remaining activity at 1.25 µM ([1]; Well no.=6052): 95.5% | remaining activity at 3.75 µM ([2]; Well no.=6052): 90.9%

O=C(Nc1cccc(Cl)c1)c1ccccn1 [VU0364770]
remaining activity at 1.25 µM ([1]; Well no.=7761): 102% | remaining activity at 3.75 µM ([2]; Well no.=7761): 105%

COc1ccc(S(=O)(=O)Nc2cc(Cl)cc(Cl)c2OC)cc1N1CCNCC1 [N-(3,5-dichloro-2-methoxyphenyl)-4-methoxy-3-(piperazin-1-yl)benzenesulfonamide hydrochloride]
remaining activity at 1.25 µM ([1]; Well no.=5561): 97.1% | remaining activity at 3.75 µM ([2]; Well no.=5561): 103%

Cn1ccnc1 [1-Methylimidazole]
remaining activity at 1.25 µM ([1]; Well no.=939): 101% | remaining activity at 3.75 µM ([2]; Well no.=939): 102%

Clc1ccc(N2CCN(Cc3c[nH]c4ncccc34)CC2)cc1 [L-745,870 hydrochloride]
remaining activity at 1.25 µM ([1]; Well no.=1108): 92.3% | remaining activity at 3.75 µM ([2]; Well no.=1108): 95.9%

C=C[C@H]1CN2CC[C@H]1C[C@@H]2[C@@H](O)c1ccnc2ccccc12 [Cinchonine]
remaining activity at 1.25 µM ([1]; Well no.=7012): 97.3% | remaining activity at 3.75 µM ([2]; Well no.=7012): 93.6%

N#Cc1cc2nc(O)c(O)nc2cc1[N+](=O)[O-] [CNQX disodium]
remaining activity at 1.25 µM ([1]; Well no.=681): 101% | remaining activity at 3.75 µM ([2]; Well no.=681): 102%

COc1cc2c3cc1Oc1cc(ccc1O)C[C@@H]1c4c(cc(OC)c(O)c4Oc4ccc(cc4)C[C@@H]3N(C)CC2)CC[N+]1(C)C [(+)-Tubocurarine chloride]
remaining activity at 1.25 µM ([1]; Well no.=3471): 103% | remaining activity at 3.75 µM ([2]; Well no.=3471): 104%

CN1[C@@H]2CC[C@H]1CC(O)C2 (some centres unmarked) [Tropine]
remaining activity at 1.25 µM ([1]; Well no.=3469): 105% | remaining activity at 3.75 µM ([2]; Well no.=3469): 106%

CCOC(=O)C1=CCCC[C@H]1S(=O)(=O)Nc1ccc(F)cc1Cl [Resatorvid]
remaining activity at 1.25 µM ([1]; Well no.=8421): 90.4% | remaining activity at 3.75 µM ([2]; Well no.=8421): 90.5%

O=C(O)CC1CCC2(CC1)CCN(c1cc(OC(F)(F)F)ccc1Cl)CC2 [GPR120-IN-1]
remaining activity at 1.25 µM ([1]; Well no.=8485): 104% | remaining activity at 3.75 µM ([2]; Well no.=8485): 96.8%

c1ccc2[nH]c(-c3cscn3)nc2c1 [Thiabendazole]
remaining activity at 1.25 µM ([1]; Well no.=4622): 100% | remaining activity at 3.75 µM ([2]; Well no.=4622): 98.1%
